Data on one molecule can be found in patent publication US7704995B2 (Exelixis, Inc., priority 2003, dated 2010).

pIC50: −log10 of the molar value.

What all share (experiment): Kinase specificity assay (33P phosphoryl transfer, LCCA or AlphaScreen)
What all share (format): biochemical
(Alpha assays give light when donor and acceptor beads are brought close together.)

One experiment deals with T1, EphB4 (Homo sapiens, UniProt P54760).
T1 sequence (P54760 16-987): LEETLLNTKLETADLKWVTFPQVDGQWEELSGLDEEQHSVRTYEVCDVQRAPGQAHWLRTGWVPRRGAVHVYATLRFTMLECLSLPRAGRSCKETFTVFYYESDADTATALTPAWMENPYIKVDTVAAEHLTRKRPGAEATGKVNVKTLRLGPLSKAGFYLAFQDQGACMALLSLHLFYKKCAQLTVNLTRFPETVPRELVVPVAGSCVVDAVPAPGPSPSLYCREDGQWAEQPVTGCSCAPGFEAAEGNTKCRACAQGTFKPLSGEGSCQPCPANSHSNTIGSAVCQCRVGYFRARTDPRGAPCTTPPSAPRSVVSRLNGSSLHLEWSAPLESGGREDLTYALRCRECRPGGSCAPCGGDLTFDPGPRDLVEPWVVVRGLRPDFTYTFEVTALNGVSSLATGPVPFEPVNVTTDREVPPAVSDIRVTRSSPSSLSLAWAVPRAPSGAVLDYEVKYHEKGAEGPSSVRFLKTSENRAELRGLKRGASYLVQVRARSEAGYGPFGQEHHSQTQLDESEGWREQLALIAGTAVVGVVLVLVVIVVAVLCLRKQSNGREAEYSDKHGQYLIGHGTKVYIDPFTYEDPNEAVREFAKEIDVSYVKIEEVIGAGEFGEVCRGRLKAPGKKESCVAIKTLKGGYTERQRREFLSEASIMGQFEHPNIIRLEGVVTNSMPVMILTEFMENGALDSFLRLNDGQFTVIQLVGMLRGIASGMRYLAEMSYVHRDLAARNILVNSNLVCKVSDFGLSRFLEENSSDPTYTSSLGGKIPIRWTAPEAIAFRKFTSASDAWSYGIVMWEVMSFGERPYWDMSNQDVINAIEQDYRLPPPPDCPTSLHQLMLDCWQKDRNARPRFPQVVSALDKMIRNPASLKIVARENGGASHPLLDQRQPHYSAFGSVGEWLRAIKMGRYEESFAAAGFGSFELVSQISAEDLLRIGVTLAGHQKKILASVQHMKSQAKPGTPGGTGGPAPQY
The conditions noted are these: ATP close to KM; read-out: EphB4 inhibition, IC50. As for the experimental part: (§1) Kinase activity and compound inhibition are investigated using one or more of the three assay formats described below. The ATP concentrations for each assay are selected to be close to the Michaelis-Menten constant (KM) for each individual kinase. Dose-response experiments are performed at 10 different inhibitor concentrations in a 384-well plate format. The data are fitted to the following four-parameter equation: Y=Min+(Max−Min)/(1+(X/IC50)^H) where Y is the observed signal, X is the inhibitor concentration, Min is the background signal in the absence of enzyme (0% enzyme activity), Max is the signal in the absence of inhibitor (100% enzyme activity), IC50 is the inhibitor concentration at 50% enzyme inhibition and H represents the empirical Hill's slope to measure the cooperativity. Typically H is close to unity. ^33P Phosphoryl Transfer Assay:
(§2) Greiner 384-well white, clear bottom, high binding plates are coated with 2 μg/well of protein or peptide substrate in a 50 μL volume overnight at ambient temperature. The coating buffer typically contains 40 μg/mL substrate, 22.5 mM Na2CO3, 27.5 mM NaHCO3, 150 mM NaCl and 3 mM NaN3. The coating solution is aspirated and the plates are washed once with 50 μL of assay buffer and padded dry. Subsequently compounds and enzymes are mixed with γ^33P-ATP (3.3 μCi/nmol) in a total volume of 20 uL in suitable assay buffers. The mixture is incubated at ambient temperature for 1.5-2.5 hrs and terminated by aspiration using a Molecular Devices EMBLA 96-head plate washer. The plates are subsequently washed 6-12 times with PBST or TBS buffer. Scintillation fluid (50 μl/well) is then added, the plates are sealed and activity assessed by liquid scintillation spectrometry using a Perkin Elmer MicroBeta TriLux.
(§3) In the LCCA assays, kinase activity is measured as the percent ATP consumed following the kinase reaction using luciferase-luciferin-coupled chemiluminescence. Greiner 384-well white, clear bottom, medium binding plates are used for LCCA. Briefly, the kinase reaction is initiated by mixing compounds, ATP and kinase in a 20 uL volume. The mixture is incubated at ambient temperature for 2-4 hrs. At the end of the kinase reaction, a 20 uL luciferase-luciferin mix is added and the chemiluminescent signal is read using a Wallac Victor^2 reader. The luciferase-luciferin mix consists of 50 mM HEPES, pH 7.8, 8.5 ug/mL oxalic acid (pH 7.8), 5 (or 50) mM DTT, 0.4% Triton X-100, 0.25 mg/mL coenzyme A, 63 uM AMP, 28 ug/mL luciferin and 40,000 units of light/mL luciferase. For the LCCA assays, total ATP consumption has been standardized to 25-45% and the IC50 values correlates well with those determined by radiometric assays.
(§4) AlphaScreen technology is a proximity assay which utilizes the increase in fluorescent signal when donor and acceptor beads are close in proximity. Biotinylated poly(Glu,Tyr) 4:1 is used as the kinase substrate, in conjunction with streptavidin-coated donor beads and anti-phosphortyrosine antibody PY100-coated acceptor beads. Upon phosphorylation, the peptide substrate can bind to both donor and acceptor beads giving rise to an increase in fluorescence. Compounds, ATP, biotinylated poly(Glu, Tyr) and kinases are mixed in a volume of 20 uL for 1 hr at ambient temperature using Greiner 384-well white clear bottom medium binding plates. Following incubation a 10 uL solution containing […] AlphaScreen beads, 75 mM Hepes, pH 7.4, 300 mM NaCl, 120 mM EDTA, 0.3% BSA and 0.03% Tween-20 is added to each well. After 2-16 hr incubation of the beads, plates are read in a Perkin Elmer AlphaQuest reader. The IC50 values correlates well with those of radiometric assays.

The next experiment concerns the target EphA2R (Homo sapiens, UniProt P29317). The conditions noted are these: ATP close to KM; read-out: EphA2R inhibition, IC50. As for the experimental part: as §1, §2, §3, §4
The next experiment concerns the target PKA (Homo sapiens, UniProt P17612). Conditions: ATP close to KM; read-out: PKA inhibition, IC50. On the procedure: as §1, §2, §3, §4
The next experiment deals with ErbB2 (Homo sapiens, UniProt P04626). The conditions noted are these: ATP close to KM; read-out: ErbB2 inhibition, IC50. On the procedure: as §1, §2, §3, §4
The target of a further experiment is PDGFR-β (Homo sapiens, UniProt P09619). The conditions noted are these: ATP close to KM; read-out: PDGFR-β inhibition, IC50. As for the experimental part:
as §1, §2, §3, §4

Another experiment deals with CLK1 (Homo sapiens, UniProt P49759). The conditions noted are these: ATP close to KM; read-out: CLK1 inhibition, IC50. On the procedure:
as §1, §2, §3, §4

The target of another experiment is Cdc2 (Homo sapiens, UniProt P06493). The conditions noted are these: ATP close to KM; read-out: Cdc2 inhibition, IC50. On the procedure: as §1, §2, §3, §4
Chain of Cdc2 (P06493 whole entry): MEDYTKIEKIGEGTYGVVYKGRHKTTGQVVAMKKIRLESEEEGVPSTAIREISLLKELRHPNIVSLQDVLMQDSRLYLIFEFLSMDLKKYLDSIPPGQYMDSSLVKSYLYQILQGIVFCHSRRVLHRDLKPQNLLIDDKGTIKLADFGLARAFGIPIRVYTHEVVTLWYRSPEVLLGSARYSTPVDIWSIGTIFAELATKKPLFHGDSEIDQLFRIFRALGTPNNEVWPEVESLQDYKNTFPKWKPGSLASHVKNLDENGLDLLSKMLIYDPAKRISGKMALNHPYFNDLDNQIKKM
Chain of Cdc2 (P14635 whole entry partner): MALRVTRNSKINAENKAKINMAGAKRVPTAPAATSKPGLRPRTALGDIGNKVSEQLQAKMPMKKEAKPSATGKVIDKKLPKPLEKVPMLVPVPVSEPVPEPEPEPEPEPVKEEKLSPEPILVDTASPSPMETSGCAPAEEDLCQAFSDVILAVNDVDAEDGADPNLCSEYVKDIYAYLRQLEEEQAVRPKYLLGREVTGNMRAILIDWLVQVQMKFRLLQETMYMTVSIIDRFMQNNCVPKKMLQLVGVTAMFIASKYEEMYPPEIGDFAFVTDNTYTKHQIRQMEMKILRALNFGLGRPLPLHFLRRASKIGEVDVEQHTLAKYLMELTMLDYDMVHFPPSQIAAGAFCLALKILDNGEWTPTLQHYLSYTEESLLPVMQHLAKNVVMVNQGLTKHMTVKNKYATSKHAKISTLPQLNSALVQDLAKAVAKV

Chain of CLK1 (P49759 whole entry): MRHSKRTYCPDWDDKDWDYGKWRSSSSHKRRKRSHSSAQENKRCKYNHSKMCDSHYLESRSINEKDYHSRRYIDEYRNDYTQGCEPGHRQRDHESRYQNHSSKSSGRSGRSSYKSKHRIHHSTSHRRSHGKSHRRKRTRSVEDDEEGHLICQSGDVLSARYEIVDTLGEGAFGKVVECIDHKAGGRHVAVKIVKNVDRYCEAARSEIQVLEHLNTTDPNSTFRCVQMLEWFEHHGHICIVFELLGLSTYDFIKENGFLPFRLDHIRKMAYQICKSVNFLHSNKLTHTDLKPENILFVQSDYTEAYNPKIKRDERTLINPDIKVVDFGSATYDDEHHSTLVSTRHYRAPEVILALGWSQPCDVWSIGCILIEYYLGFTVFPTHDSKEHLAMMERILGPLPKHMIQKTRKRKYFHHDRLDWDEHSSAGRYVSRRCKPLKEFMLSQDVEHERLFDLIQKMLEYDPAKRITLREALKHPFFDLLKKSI
Chain of ErbB2 (P04626 23-1255): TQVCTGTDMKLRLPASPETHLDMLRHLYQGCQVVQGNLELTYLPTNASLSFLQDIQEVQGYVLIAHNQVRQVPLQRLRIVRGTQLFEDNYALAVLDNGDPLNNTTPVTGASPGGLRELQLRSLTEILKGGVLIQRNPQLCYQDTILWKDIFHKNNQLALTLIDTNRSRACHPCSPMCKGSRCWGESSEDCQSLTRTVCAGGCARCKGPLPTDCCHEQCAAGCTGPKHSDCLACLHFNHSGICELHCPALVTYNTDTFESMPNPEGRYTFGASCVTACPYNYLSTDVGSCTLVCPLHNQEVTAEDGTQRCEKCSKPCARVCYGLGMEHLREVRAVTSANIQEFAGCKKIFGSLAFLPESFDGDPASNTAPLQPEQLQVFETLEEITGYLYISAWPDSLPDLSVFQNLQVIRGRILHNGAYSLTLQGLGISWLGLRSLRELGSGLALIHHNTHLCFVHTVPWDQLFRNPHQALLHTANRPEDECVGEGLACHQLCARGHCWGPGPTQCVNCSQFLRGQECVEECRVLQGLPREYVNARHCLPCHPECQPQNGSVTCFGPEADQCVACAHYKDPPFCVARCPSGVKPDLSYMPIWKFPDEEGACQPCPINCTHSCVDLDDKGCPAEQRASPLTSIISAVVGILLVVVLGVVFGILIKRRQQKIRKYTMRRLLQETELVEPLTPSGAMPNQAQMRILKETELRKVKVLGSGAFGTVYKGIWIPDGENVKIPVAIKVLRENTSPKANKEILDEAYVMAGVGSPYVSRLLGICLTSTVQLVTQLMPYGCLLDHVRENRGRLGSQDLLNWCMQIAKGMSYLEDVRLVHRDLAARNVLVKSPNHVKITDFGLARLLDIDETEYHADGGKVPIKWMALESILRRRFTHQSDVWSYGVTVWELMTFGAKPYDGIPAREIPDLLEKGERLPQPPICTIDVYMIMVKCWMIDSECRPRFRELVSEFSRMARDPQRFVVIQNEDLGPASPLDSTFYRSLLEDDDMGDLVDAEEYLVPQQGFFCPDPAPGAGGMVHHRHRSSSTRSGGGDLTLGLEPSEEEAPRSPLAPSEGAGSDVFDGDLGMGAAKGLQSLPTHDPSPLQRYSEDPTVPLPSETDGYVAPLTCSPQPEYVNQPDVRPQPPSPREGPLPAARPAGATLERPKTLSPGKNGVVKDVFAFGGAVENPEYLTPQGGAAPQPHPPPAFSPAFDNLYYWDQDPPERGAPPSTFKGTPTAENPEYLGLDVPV
Chain of EphA2R (P29317 24-976): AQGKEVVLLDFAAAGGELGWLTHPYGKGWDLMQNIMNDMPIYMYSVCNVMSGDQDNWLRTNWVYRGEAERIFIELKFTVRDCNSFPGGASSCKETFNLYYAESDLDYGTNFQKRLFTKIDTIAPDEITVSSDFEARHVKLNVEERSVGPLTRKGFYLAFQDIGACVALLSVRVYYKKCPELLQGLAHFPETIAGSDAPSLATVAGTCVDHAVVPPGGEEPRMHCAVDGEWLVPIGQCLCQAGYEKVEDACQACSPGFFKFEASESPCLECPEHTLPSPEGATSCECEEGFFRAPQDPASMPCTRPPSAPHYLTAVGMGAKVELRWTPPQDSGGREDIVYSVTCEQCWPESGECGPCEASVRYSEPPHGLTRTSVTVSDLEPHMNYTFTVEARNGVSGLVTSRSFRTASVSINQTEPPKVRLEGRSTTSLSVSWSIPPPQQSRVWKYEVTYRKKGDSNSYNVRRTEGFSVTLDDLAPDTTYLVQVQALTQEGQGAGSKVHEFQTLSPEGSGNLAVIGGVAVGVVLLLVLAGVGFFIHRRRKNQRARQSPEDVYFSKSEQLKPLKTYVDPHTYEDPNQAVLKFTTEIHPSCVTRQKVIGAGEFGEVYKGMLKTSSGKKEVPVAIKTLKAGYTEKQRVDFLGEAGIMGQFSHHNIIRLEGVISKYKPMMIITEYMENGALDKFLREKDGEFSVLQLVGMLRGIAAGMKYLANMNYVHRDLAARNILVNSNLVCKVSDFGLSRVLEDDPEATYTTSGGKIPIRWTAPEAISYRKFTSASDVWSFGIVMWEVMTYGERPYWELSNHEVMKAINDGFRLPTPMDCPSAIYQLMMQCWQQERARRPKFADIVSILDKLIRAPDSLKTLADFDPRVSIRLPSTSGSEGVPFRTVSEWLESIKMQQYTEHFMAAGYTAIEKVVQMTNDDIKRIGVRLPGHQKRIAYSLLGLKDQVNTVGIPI
Chain of PDGFR-β (P09619 33-1106): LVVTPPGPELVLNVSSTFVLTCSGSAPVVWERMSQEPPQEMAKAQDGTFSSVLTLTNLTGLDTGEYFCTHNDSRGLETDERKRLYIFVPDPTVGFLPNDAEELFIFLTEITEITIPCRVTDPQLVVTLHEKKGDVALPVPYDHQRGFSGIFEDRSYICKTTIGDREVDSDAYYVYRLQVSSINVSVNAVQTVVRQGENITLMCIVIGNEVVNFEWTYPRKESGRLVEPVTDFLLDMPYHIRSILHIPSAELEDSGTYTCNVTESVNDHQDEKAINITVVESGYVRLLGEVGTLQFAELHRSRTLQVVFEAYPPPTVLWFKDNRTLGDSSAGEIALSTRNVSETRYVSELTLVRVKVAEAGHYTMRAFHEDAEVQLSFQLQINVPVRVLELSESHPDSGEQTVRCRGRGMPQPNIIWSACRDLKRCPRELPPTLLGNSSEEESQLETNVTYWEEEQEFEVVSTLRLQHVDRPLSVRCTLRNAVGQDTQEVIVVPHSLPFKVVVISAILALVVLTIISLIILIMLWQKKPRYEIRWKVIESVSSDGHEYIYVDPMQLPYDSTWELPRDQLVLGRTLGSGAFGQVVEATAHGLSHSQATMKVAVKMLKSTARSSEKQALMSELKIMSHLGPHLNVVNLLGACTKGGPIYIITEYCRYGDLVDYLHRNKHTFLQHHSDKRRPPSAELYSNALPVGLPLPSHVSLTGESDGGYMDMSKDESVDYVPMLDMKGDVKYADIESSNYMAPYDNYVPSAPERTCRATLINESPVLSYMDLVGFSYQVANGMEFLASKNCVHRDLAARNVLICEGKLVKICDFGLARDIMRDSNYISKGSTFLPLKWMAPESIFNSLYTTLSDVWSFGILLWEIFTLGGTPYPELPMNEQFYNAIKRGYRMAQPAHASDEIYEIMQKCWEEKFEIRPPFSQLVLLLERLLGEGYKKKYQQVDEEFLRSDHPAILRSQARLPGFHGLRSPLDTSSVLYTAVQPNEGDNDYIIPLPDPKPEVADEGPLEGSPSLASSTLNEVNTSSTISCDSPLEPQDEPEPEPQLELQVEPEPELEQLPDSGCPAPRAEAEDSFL

The term pIC50 denotes −log10 of the IC50, conventionally taken in molar units. Turning to `NC(=O)c1nc(-c2cccc3ccccc23)cnc1N` [Example 2, 3-Amino-6-naphthalen-1-ylpyrazine-2-carboxamide], the pIC50 at EphB4 was at most 5.00; on EphA2R it was at most 5.00; on PKA, 5.00 to 6.00; on ErbB2, at most 5.00; on PDGFR-β, 6.00 to 7.30; at CLK1, 5.00 to 6.00. Also, the pIC50 on Cdc2 is at most 5.00.
